Measured values published in ChEMBL document CHEMBL1201862, “PubChem BioAssay data set” (2004).
Activity calls are given as the source filed them.

How the values were obtained:
[1] = biological target: 5-hydroxytryptamine receptor 5A (Homo sapiens, UniProt P47898); assay: Counterscreen for agonists of OPRM1-OPRD1 heterodimerization: luminescence-based cell-based high throughput dose response assay to identify agonists of 5-hydroxytryptamine (serotonin) 5A receptor (HTR5A). [Related pubchem assays (depositor defined):AID504326, AID504355, AID504692, AID504904, AID504905]; assay type: functional
Chain of 5-hydroxytryptamine receptor 5A (P47898 whole entry): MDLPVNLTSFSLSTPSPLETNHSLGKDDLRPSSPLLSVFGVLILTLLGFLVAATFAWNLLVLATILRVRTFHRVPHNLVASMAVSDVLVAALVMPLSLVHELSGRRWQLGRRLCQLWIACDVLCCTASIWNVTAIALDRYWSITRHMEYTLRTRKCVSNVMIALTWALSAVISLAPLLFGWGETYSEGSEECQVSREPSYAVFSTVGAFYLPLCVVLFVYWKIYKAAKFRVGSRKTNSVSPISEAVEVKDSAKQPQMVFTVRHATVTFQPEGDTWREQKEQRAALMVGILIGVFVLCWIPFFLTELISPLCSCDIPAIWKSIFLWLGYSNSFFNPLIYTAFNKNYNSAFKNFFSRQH

[2] = biological target: Delta-type opioid receptor (Homo sapiens, UniProt P41143); assay: Counterscreen for agonists of heterodimerization of the mu 1 (OPRM1) and delta 1 (OPRD1) opioid receptors: Luminescence-based cell-based high throughput dose response assay to identify agonists of OPRD1 homodimerization. [Related pubchem assays (depositor defined):AID504326, AID504355, AID504692, AID504904, AID504905]; assay type: functional
Chain of Delta-type opioid receptor (P41143 whole entry): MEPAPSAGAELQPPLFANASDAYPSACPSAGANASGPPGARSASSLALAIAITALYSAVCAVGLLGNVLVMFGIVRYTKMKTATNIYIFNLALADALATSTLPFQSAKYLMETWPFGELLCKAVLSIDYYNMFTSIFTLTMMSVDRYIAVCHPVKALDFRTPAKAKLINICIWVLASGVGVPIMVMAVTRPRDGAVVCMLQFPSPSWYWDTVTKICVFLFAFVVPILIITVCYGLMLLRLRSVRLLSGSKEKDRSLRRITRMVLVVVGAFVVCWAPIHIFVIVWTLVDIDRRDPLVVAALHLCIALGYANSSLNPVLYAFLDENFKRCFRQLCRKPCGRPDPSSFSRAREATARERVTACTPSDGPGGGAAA

Mu-type opioid receptor = Mu-type opioid receptor (Homo sapiens, UniProt P35372); assay: Counterscreen for agonists of heterodimerization of the mu 1 (OPRM1) and delta 1 (OPRD1) opioid receptors: Luminescence-based cell-based high throughput dose response assay to identify agonists of OPRM1 homodimerization.; assay type: functional;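 also: U2OS cells expressing OPRM1 and beta-arrestin as split beta-galactosidase partners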
Chain of Mu-type opioid receptor (P35372 whole entry): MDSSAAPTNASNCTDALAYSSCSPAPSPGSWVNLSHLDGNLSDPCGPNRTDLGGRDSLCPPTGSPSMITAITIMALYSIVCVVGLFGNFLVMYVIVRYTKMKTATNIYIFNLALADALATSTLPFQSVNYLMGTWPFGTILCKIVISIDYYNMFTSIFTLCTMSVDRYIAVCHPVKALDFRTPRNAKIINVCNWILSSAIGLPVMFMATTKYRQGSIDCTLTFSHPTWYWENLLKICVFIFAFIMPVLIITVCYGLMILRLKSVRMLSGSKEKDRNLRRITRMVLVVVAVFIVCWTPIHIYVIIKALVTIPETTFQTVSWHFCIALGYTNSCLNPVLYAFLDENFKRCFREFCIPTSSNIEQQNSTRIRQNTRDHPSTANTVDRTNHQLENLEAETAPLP

[3] = biological target: Neuropeptide Y receptor type 2 (Homo sapiens, UniProt P49146); assay: Fluorescence-based cell-based high-throughput dose response assay for agonists of NPY-Y2. [Related pubchem assays: 1703 (Screening assay (CNGC inhibitors).), 1359 (Screening assay (NPY-Y2 potentiators or agonists).), 1304 (Screening assay (NPY-Y1 potentiators or agonists).), 1710 (Screening assay (NPY-Y2 agonists).), 1791 (Summary AID.)]; assay type: functional
Chain of Neuropeptide Y receptor type 2 (P49146 whole entry): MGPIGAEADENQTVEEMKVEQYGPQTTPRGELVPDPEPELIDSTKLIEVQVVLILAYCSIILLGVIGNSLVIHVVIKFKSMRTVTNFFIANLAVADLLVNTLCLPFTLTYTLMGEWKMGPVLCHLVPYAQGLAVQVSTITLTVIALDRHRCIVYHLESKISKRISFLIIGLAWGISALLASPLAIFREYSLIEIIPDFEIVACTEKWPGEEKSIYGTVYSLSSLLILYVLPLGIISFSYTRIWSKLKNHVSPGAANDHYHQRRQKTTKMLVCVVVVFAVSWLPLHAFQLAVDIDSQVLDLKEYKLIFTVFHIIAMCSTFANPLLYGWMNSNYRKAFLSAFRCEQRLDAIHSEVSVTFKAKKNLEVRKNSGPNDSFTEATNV

[4] = biological target: Neuropeptide Y receptor type 1 (Homo sapiens, UniProt P25929); assay: Fluorescence-based counterscreen for agonists of NPY-Y2: cell-based high-throughput dose response assay for agonists of NPY-Y1.; assay type: functional
Chain of Neuropeptide Y receptor type 1 (P25929 whole entry): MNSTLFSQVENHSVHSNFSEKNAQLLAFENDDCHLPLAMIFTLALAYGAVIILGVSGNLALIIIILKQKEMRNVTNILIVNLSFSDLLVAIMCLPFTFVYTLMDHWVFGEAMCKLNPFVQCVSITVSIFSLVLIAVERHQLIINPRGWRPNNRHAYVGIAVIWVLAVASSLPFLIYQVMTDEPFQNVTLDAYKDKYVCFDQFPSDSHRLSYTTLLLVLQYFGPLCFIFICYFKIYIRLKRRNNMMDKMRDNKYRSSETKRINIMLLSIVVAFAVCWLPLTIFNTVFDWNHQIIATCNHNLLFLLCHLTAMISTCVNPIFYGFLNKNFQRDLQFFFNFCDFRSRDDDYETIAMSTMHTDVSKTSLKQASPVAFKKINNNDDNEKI

HEK293 [5] = assay: Fluorescence-based counterscreen for potentiators or agonists of NPY-Y2: cell-based high-throughput dose response assay to identify inhibitors of cyclic nucleotide gated ion channel (CNGC) activity. In this assay, the parental HEK293 cell line transfected with a cyclic-nucleotide gated ion channel (CNGC)-based cAMP sensor is used to measure inhibition of isoproterenol-induced CNGC activity by test compound.; assay type: functional; settings: Homo sapiens
[6] = biological target: T1, Beta-2 adrenergic receptor (Homo sapiens, UniProt P07550); assay: ADRB2 activation measured by internalization – cell-based, FAP fluorogen, flow cytometry, cherry pick 1, dose response (AID 588763); assay type: functional
T1 sequence (P07550 whole entry): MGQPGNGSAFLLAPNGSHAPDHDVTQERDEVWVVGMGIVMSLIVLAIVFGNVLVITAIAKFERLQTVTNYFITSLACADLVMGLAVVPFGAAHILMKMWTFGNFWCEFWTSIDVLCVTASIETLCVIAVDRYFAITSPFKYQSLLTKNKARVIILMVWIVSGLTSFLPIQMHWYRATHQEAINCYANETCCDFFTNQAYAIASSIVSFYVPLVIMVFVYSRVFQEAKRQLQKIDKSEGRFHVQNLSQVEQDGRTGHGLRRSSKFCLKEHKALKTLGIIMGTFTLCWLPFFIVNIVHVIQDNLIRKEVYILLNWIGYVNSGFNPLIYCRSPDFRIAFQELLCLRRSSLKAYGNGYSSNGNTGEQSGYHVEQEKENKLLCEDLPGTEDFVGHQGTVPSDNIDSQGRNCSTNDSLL

[7] = biological target: T1, Beta-2 adrenergic receptor; assay: Dose response for HTS for Beta-2AR agonists via FAP method from Powderset3.; assay type: functional
[8] = biological target: SWI/SNF-related matrix-associated actin-dependent regulator of chromatin subfamily A member 2 (Homo sapiens, UniProt P51531); assay: Luminescence-based cell-based high throughput dose response assay to identify activators of the function of SWI/SNF related, matrix associated, actin dependent regulator of chromatin, subfamily a, member 2 (SMARCA2, BRM).; assay type: functional
Chain of SWI/SNF-related matrix-associated actin-dependent regulator of chromatin subfamily A member 2 (P51531 whole entry): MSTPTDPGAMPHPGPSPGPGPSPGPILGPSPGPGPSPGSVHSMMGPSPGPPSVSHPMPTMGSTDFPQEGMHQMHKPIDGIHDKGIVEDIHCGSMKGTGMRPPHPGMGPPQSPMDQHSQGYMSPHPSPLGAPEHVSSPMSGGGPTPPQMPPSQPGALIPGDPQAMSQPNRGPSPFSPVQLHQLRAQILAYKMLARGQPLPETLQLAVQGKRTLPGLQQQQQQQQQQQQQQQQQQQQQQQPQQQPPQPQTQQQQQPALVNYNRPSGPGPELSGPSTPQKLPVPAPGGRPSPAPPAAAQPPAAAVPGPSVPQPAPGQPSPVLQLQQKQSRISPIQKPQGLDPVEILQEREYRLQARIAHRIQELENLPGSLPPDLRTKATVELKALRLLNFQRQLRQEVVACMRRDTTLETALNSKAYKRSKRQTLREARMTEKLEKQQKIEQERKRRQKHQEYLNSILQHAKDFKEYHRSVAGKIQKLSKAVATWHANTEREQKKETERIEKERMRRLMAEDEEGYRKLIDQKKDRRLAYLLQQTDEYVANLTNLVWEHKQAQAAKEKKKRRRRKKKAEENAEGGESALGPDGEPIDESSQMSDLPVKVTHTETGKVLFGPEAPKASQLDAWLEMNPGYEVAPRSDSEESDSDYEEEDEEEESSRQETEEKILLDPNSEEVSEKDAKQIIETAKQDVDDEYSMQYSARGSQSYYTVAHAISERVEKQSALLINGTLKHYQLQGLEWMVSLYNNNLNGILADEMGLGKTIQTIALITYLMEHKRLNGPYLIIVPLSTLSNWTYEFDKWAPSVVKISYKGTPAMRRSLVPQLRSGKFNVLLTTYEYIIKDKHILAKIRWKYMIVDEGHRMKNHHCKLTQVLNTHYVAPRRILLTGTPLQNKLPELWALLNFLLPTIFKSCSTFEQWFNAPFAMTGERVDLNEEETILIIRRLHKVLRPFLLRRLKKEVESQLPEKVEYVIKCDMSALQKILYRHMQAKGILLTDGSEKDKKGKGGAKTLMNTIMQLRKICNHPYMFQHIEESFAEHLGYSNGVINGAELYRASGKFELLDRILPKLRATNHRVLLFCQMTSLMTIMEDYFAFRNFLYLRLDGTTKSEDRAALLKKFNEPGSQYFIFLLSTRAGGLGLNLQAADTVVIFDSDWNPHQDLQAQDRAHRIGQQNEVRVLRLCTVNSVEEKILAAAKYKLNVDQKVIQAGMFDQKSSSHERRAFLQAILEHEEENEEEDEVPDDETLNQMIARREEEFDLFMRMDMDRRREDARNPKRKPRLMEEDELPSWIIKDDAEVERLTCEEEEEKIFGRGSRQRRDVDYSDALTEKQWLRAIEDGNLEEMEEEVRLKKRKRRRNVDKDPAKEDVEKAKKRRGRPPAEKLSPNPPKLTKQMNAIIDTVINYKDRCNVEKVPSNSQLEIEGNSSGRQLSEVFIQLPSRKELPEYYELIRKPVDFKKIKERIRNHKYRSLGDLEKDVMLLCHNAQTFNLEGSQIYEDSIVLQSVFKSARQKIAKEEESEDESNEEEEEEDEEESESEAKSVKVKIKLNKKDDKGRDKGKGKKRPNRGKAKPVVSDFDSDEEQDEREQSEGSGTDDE

HEK293 [9] = assay: cells; settings: Homo sapiens
[10] = biological target: DNA (cytosine-5)-methyltransferase 1 (Homo sapiens, UniProt P26358); assay: inhibition of DNA methylation by DNMT1 – biochemical, fluorescent molecular beacon, confirmation (AID 602386); assay type: functional
[11] = biological target: T2, DNA repair protein RAD52 homolog (Homo sapiens, UniProt P43351); assay type: functional, biochemical
T2 sequence (P43351 whole entry): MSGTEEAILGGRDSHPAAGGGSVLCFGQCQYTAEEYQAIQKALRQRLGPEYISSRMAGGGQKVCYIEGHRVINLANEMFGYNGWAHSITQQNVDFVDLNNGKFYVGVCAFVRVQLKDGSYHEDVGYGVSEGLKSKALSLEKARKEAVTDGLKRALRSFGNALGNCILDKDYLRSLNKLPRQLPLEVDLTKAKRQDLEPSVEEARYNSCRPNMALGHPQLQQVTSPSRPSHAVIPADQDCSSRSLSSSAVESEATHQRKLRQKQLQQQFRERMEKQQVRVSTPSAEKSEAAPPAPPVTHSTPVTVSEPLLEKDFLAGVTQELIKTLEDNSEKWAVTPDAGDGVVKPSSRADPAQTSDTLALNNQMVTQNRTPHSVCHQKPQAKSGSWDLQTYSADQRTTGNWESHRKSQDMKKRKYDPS

[12] = biological target: E3 ubiquitin-protein ligase UHRF1 (Homo sapiens, UniProt Q96T88); assay: Counterscreen for inhibitors of 5-meCpG-binding domain protein 2 (MBD2): TRFRET-based biochemical high throughput dose response assay to identify inhibitors of binding of ubiquitin-like with PHD and ring finger domains 1 (UHRF1) to methylated oligonucleotide.
Chain of E3 ubiquitin-protein ligase UHRF1 (Q96T88 whole entry, the tested form may be a part): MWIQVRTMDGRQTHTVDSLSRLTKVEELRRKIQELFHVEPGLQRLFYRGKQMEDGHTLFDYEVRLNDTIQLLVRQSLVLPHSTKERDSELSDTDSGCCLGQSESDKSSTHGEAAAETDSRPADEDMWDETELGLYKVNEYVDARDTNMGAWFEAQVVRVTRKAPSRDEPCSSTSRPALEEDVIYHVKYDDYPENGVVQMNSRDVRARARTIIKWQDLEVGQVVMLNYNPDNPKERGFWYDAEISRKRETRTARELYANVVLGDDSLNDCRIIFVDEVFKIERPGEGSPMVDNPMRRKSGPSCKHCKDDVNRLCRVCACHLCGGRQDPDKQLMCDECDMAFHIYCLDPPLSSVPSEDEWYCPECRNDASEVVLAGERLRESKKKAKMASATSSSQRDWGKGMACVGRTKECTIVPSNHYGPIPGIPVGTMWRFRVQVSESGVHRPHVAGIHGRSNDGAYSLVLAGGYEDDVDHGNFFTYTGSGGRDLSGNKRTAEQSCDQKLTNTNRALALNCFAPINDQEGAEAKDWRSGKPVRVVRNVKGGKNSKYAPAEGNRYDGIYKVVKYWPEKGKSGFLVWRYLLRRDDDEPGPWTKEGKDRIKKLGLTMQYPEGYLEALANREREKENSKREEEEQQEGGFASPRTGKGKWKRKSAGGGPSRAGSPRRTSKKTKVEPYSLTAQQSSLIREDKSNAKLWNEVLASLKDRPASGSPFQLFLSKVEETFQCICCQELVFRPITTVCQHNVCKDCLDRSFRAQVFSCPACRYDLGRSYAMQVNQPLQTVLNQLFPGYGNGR

HEK293 [13] = assay: cells; settings: Homo sapiens; remark: listed apart in the source
[14] = Counterscreen for activators of the function of SWI/SNF related, matrix associated, actin dependent regulator of chromatin, subfamily a, member 2 (SMARCA2, BRM): Luminescence-based cell-based high throughput dose response assay to identify non-selective compounds using the VP16 reporter assay.; assay type: functional
Escherichia coli [15] = assay: microbe, parasite or virus in culture
Escherichia coli [16] = assay: microbe, parasite or virus in culture; remark: listed apart in the source
[17] = blockers of SFLLRN-triggered platelet ATP secretion – cell-based, human platelets, luminescence, dry powder, dose response (AID 493100); assay type: functional
[18] = PAR1 agonist-induced platelet activation inhibition – cell-based, fluorescence, flow cytometry, human platelets, dose response (AID 2511); assay type: functional
[19] = biological target: Luciferin 4-monooxygenase (Photinus pyralis, UniProt P08659); assay: inhibition of purified Photinus pyralis luciferase – biochemical, luminescence, dose response (AID 1891)
[20] = Luminescence Cell-Based Dose Response Follow up to Identify Inhibitors of Platelet Dense Granule Release. [Related pubchem assays (depositor defined):AID1663, AID1678, AID2398]; assay type: functional
[21] = Luminescence Cell-Based Dose Confirmation HTS to Identify Inhibitors of Platelet Dense Granule Release. [Related pubchem assays: 1663 (Primary HTS), 1678 (Summary of Project)]; assay type: functional
Candida albicans [22] = assay: fluconazole-resistant Candida strain growth inhibitors – CaCi-8 strain, dry powder, set 4, dose response (AID 488950); assay type: functional, organism-based
Candida albicans [23] = assay: C. albicans growth inhibition with fluconazole – CaCi-2 strain, Alamar Blue, dry powder, set 4, dose response (AID 488943); assay type: functional, organism-based
Candida albicans [24] = assay: Candida growth reduction in fluconazole presence – CaCi-2 strain, Alamar Blue, dry powder, set 2, antifungal resistance reversal project, dose response (AID 488930); assay type: functional, organism-based
Candida albicans [25] = assay: single-agent antifungal toxicity in C. albicans – CaCi-2 strain, Alamar Blue, dry powder, set 2, counter-screen for antifungal drug resistance project, dose response (AID 488893); assay type: functional, organism-based
Candida albicans [26] = assay: resistant Candida growth with fluconazole co-treatment – CaCi-8 strain, Alamar Blue, dry powder, set 2, dose response (AID 488909); assay type: functional, organism-based

Question: Which results are given for Cc1ccc2cc(C(c3nnnn3Cc3ccccc3)N3CCc4ccccc43)c(O)nc2c1 (configuration not stated)?
Answer: EC50 [1]: > 92.5 µM (inactive); EC50 [2]: > 92.5 µM (inactive); EC50 (Mu-type opioid receptor): > 92.5 µM (inactive)

Question: Which EC50 [3] does the source give for Clc1ccc(OCc2nnc(SCc3nc4ccccc4[nH]3)n2Cc2ccco2)cc1 here?
Answer: > 35.4 µM (not active)

Question: What about the EC50 [4] of the same molecule?
Answer: > 35.4 µM (not active)

Question: And the EC50 (HEK293 [5])?
Answer: > 35.4 µM (not active)

Question: And the EC50 [6]?
Answer: 0.205 µM (active)

Question: And the EC50 [7]?
Answer: 0.0069 µM (active)

Question: For c1ccc2c(c1)C1=NCCN1c1ccccc1-2, which EC50 [8] is on record?
Answer: > 3.38 µM (active)

Question: What about the EC50 (HEK293 [9]) of the same molecule?
Answer: > 59.8 µM (inactive)

Question: What about the IC50 [10] of the same molecule?
Answer: 9.24 µM (active)

Question: And the AC50 [11]?
Answer: 5.19 µM (active)

Question: And the IC50 [12]?
Answer: 37 µM (inactive)

Question: And the EC50 (HEK293 [13])?
Answer: > 59.8 µM (inactive)

Question: And the EC50 [14]?
Answer: > 91.3 µM (inactive)

Question: For O=S(=O)(c1ccccc1)c1cnc(-c2cccnc2)nc1-c1ccc(Cl)cc1Cl, which AC50 (Escherichia coli [15]) is on record?
Answer: 150 µM (active)

Question: And the AC50 (Escherichia coli [16])?
Answer: 224 µM (active)

Question: For Cc1ccc(-n2c(N)c(C#N)c(-c3ccc(Cl)cc3)c(C#N)c2=O)cc1, which AC50 [17] is on record?
Answer: 14.3 µM (active)

Question: What about the EC50 [18] of the same molecule?
Answer: < 3 µM (active)

Question: What about the EC50 [19] of the same molecule?
Answer: > 112 µM (not active)

Question: And the EC50 [20]?
Answer: 0.623 µM (active)

Question: And the EC50 [21]?
Answer: 4.94 µM (active)

Question: For O=C(c1ccc(F)cc1)N1CCN(c2ccnc3cc(Cl)ccc23)CC1, which AC50 (Candida albicans [22]) is on record?
Answer: 1.19 µM (active)

Question: And the AC50 (Candida albicans [23])?
Answer: 1.33 µM (active)

Question: And the AC50 (Candida albicans [24])?
Answer: 0.57 µM (active)

Question: And the AC50 (Candida albicans [25])?
Answer: > 260 µM (inactive)

Question: What about the AC50 (Candida albicans [26]) of the same molecule?
Answer: 3.2 µM (active)
